From the OPERA property sets (Mansouri et al. 2018)

SMILES	logP
c1ccc2cc3cc4cc5ccccc5cc4cc3cc2c1	7.11
c1csc(-c2cccs2)c1	3.75
c1ccc2c(c1)ccc1c2ccc2ccc3ccccc3c21	7.11
c1ccc(-c2c3ccccc3c(-c3ccccc3)c3ccccc23)cc1	8.46
c1ccc2cc3c(cc2c1)sc1ccccc13	5.34
c1ccc(-c2ccccn2)nc1	1.5
c1cc2ccc3ccc4ccc5ccc6ccc1c1c2c3c4c5c61	7.64
c1ccc2cc3c(ccc4c5ccccc5ccc34)cc2c1	7.11
c1ccc2c(c1)Sc1ccccc1S2	4.47

Second part, the compound after the results:

logP	SMILES
7.71	c1ccc2c(c1)cc1ccc3cccc4c5ccccc5c2c1c34
7.11	c1ccc2c(c1)ccc1c2ccc2c3ccccc3ccc21
5.05	c1ccc2cc3c(cc2c1)oc1ccccc13
4.23	c1ccc2c(c1)Cc1ccccc1O2
7.04	c1cc2ccc3cc4cccc5ccc6cc(c1)c2c3c6c54
8.39	c1ccc2c(c1)c1ccccc1c1c3ccccc3c3ccccc3c21
1.28	c1cc(-c2ccncc2)ccn1
6.44	c1ccc2c(c1)c1cccc3ccc4cccc2c4c31
1.96	c1ccc(-c2cccc(-c3ccccn3)n2)nc1
